# Measurements: US12479804B2, “Herbicidal compounds” (SYNGENTA CROP PROTECTION AG, priority 2019, dated 2025)
# System: Echinochloa crus-galli (ECHCG)
# Experiment: Glasshouse herbicidal test, pre- and post-emergence, percentage damage to the plant
# Type: in vivo
# Details: post-emergence, 250 g/h, evaluated after 13 days
# Procedure, shortened: (§1)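 Percentage plant damage, scored 13 days after treatment as 5=80-100%, 4=60-79%, 3=40-59%, 2=20-39%, 1=0-19%. Spray of 250 g/h in acetone/water 50:50 plus 0.5% Tween 20 went on one day (pre-emergence) or eight days (post-emergence) after sowing.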
row,Compound,ECHCG POST percentage damage caused to the plant (five-point scale)
1,CC#Cc1cc(C)c(C2C(=O)CC3(C=CN(C(=O)NC(=O)c4ccccn4)CC3)CC2=O)c(C)c1 (centres unmarked) [Compound A57],5 (5=80-100%)
2,CC#Cc1cc(C)c(C2C(=O)CC3(CCN(C(C)=O)C(C)C3)CC2=O)c(C)c1 (centres unmarked) [Compound A58],5 (5=80-100%)
3,CC#Cc1cc(C)c(C2C(=O)CC3(CCN(C(C)=O)CC3C)CC2=O)c(C)c1 (centres unmarked) [Compound A59],5 (5=80-100%)
4,CC#Cc1cc(C)c(C2=C(OC(C)=O)CC3(CCCN(C(C)=O)CC3)CC2=O)c(C)c1 (centres unmarked) [Compound P1],5 (5=80-100%)
5,CC#Cc1cc(C)c(C2=C(OC(=O)OC)CC3(CCN(C(C)=O)C3)CC2=O)c(C)c1 (centres unmarked) [Compound P3],5 (5=80-100%)

# Same assay, conditions: pre-emergence, 250 g/h, evaluated after 13 days
row,Compound,ECHCG PRE percentage damage caused to the plant (five-point scale)
1,CC#Cc1cc(C)c(C2C(=O)CC3(C=CN(C(=O)NC(=O)c4ccccn4)CC3)CC2=O)c(C)c1 (centres unmarked) [Compound A57],5 (5=80-100%)
2,CC#Cc1cc(C)c(C2C(=O)CC3(CCN(C(C)=O)C(C)C3)CC2=O)c(C)c1 (centres unmarked) [Compound A58],5 (5=80-100%)
3,CC#Cc1cc(C)c(C2C(=O)CC3(CCN(C(C)=O)CC3C)CC2=O)c(C)c1 (centres unmarked) [Compound A59],5 (5=80-100%)
4,CC#Cc1cc(C)c(C2=C(OC(C)=O)CC3(CCCN(C(C)=O)CC3)CC2=O)c(C)c1 (centres unmarked) [Compound P1],5 (5=80-100%)
5,CC#Cc1cc(C)c(C2=C(OC(C)=O)CC3(CCN(C(C)=O)C(=O)C3)CC2=O)c(C)c1 (centres unmarked) [Compound P2],5 (5=80-100%)
6,CC#Cc1cc(C)c(C2=C(OC(=O)OC)CC3(CCN(C(C)=O)C3)CC2=O)c(C)c1 (centres unmarked) [Compound P3],5 (5=80-100%)

# System: Alopecurus myosuroides (ALOMY)
# Experiment: as above
# Type: in vivo
# Details: post-emergence, 250 g/h, evaluated after 13 days
# Procedure, shortened: as §1
row,Compound,ALOMY POST percentage damage caused to the plant (five-point scale)
1,CC#Cc1cc(C)c(C2C(=O)CC3(C=CN(C(=O)NC(=O)c4ccccn4)CC3)CC2=O)c(C)c1 (centres unmarked) [Compound A57],5 (5=80-100%)
2,CC#Cc1cc(C)c(C2C(=O)CC3(CCN(C(C)=O)C(C)C3)CC2=O)c(C)c1 (centres unmarked) [Compound A58],5 (5=80-100%)
3,CC#Cc1cc(C)c(C2C(=O)CC3(CCN(C(C)=O)CC3C)CC2=O)c(C)c1 (centres unmarked) [Compound A59],5 (5=80-100%)
4,CC#Cc1cc(C)c(C2=C(OC(C)=O)CC3(CCCN(C(C)=O)CC3)CC2=O)c(C)c1 (centres unmarked) [Compound P1],5 (5=80-100%)
5,CC#Cc1cc(C)c(C2=C(OC(C)=O)CC3(CCN(C(C)=O)C(=O)C3)CC2=O)c(C)c1 (centres unmarked) [Compound P2],5 (5=80-100%)
6,CC#Cc1cc(C)c(C2=C(OC(=O)OC)CC3(CCN(C(C)=O)C3)CC2=O)c(C)c1 (centres unmarked) [Compound P3],5 (5=80-100%)

# Same assay, conditions: pre-emergence, 250 g/h, evaluated after 13 days
row,Compound,ALOMY PRE percentage damage caused to the plant (five-point scale)
1,CC#Cc1cc(C)c(C2C(=O)CC3(C=CN(C(=O)NC(=O)c4ccccn4)CC3)CC2=O)c(C)c1 (centres unmarked) [Compound A57],5 (5=80-100%)
2,CC#Cc1cc(C)c(C2C(=O)CC3(CCN(C(C)=O)C(C)C3)CC2=O)c(C)c1 (centres unmarked) [Compound A58],5 (5=80-100%)
3,CC#Cc1cc(C)c(C2C(=O)CC3(CCN(C(C)=O)CC3C)CC2=O)c(C)c1 (centres unmarked) [Compound A59],5 (5=80-100%)
4,CC#Cc1cc(C)c(C2=C(OC(C)=O)CC3(CCCN(C(C)=O)CC3)CC2=O)c(C)c1 (centres unmarked) [Compound P1],5 (5=80-100%)
5,CC#Cc1cc(C)c(C2=C(OC(C)=O)CC3(CCN(C(C)=O)C(=O)C3)CC2=O)c(C)c1 (centres unmarked) [Compound P2],5 (5=80-100%)
6,CC#Cc1cc(C)c(C2=C(OC(=O)OC)CC3(CCN(C(C)=O)C3)CC2=O)c(C)c1 (centres unmarked) [Compound P3],5 (5=80-100%)

# System: Avena fatua (AVEFA)
# Experiment: as above
# Type: in vivo
# Details: post-emergence, 250 g/h, evaluated after 13 days
# Procedure, shortened: as §1
row,Compound,AVEFA POST percentage damage caused to the plant (five-point scale)
1,CC#Cc1cc(C)c(C2C(=O)CC3(C=CN(C(=O)NC(=O)c4ccccn4)CC3)CC2=O)c(C)c1 (centres unmarked) [Compound A57],5 (5=80-100%)
2,CC#Cc1cc(C)c(C2C(=O)CC3(CCN(C(C)=O)C(C)C3)CC2=O)c(C)c1 (centres unmarked) [Compound A58],5 (5=80-100%)
3,CC#Cc1cc(C)c(C2C(=O)CC3(CCN(C(C)=O)CC3C)CC2=O)c(C)c1 (centres unmarked) [Compound A59],5 (5=80-100%)
4,CC#Cc1cc(C)c(C2=C(OC(C)=O)CC3(CCCN(C(C)=O)CC3)CC2=O)c(C)c1 (centres unmarked) [Compound P1],5 (5=80-100%)
5,CC#Cc1cc(C)c(C2=C(OC(C)=O)CC3(CCN(C(C)=O)C(=O)C3)CC2=O)c(C)c1 (centres unmarked) [Compound P2],5 (5=80-100%)
6,CC#Cc1cc(C)c(C2=C(OC(=O)OC)CC3(CCN(C(C)=O)C3)CC2=O)c(C)c1 (centres unmarked) [Compound P3],5 (5=80-100%)

# Same assay, conditions: pre-emergence, 250 g/h, evaluated after 13 days
row,Compound,AVEFA PRE percentage damage caused to the plant (five-point scale)
1,CC#Cc1cc(C)c(C2C(=O)CC3(C=CN(C(=O)NC(=O)c4ccccn4)CC3)CC2=O)c(C)c1 (centres unmarked) [Compound A57],4 (4=60-79%)
2,CC#Cc1cc(C)c(C2C(=O)CC3(CCN(C(C)=O)C(C)C3)CC2=O)c(C)c1 (centres unmarked) [Compound A58],5 (5=80-100%)
3,CC#Cc1cc(C)c(C2C(=O)CC3(CCN(C(C)=O)CC3C)CC2=O)c(C)c1 (centres unmarked) [Compound A59],5 (5=80-100%)
4,CC#Cc1cc(C)c(C2=C(OC(C)=O)CC3(CCCN(C(C)=O)CC3)CC2=O)c(C)c1 (centres unmarked) [Compound P1],5 (5=80-100%)
5,CC#Cc1cc(C)c(C2=C(OC(C)=O)CC3(CCN(C(C)=O)C(=O)C3)CC2=O)c(C)c1 (centres unmarked) [Compound P2],5 (5=80-100%)
6,CC#Cc1cc(C)c(C2=C(OC(=O)OC)CC3(CCN(C(C)=O)C3)CC2=O)c(C)c1 (centres unmarked) [Compound P3],4 (4=60-79%)

# System: Lolium perenne (LOLPE)
# Experiment: as above
# Type: in vivo
# Details: post-emergence, 250 g/h, evaluated after 13 days
# Procedure, shortened: as §1
row,Compound,LOLPE POST percentage damage caused to the plant (five-point scale)
1,CC#Cc1cc(C)c(C2C(=O)CC3(C=CN(C(=O)NC(=O)c4ccccn4)CC3)CC2=O)c(C)c1 (centres unmarked) [Compound A57],5 (5=80-100%)
2,CC#Cc1cc(C)c(C2C(=O)CC3(CCN(C(C)=O)C(C)C3)CC2=O)c(C)c1 (centres unmarked) [Compound A58],5 (5=80-100%)
3,CC#Cc1cc(C)c(C2C(=O)CC3(CCN(C(C)=O)CC3C)CC2=O)c(C)c1 (centres unmarked) [Compound A59],5 (5=80-100%)
4,CC#Cc1cc(C)c(C2=C(OC(C)=O)CC3(CCCN(C(C)=O)CC3)CC2=O)c(C)c1 (centres unmarked) [Compound P1],5 (5=80-100%)
5,CC#Cc1cc(C)c(C2=C(OC(C)=O)CC3(CCN(C(C)=O)C(=O)C3)CC2=O)c(C)c1 (centres unmarked) [Compound P2],5 (5=80-100%)
6,CC#Cc1cc(C)c(C2=C(OC(=O)OC)CC3(CCN(C(C)=O)C3)CC2=O)c(C)c1 (centres unmarked) [Compound P3],5 (5=80-100%)

# Same assay, conditions: pre-emergence, 250 g/h, evaluated after 13 days
row,Compound,LOLPE PRE percentage damage caused to the plant (five-point scale)
1,CC#Cc1cc(C)c(C2C(=O)CC3(C=CN(C(=O)NC(=O)c4ccccn4)CC3)CC2=O)c(C)c1 (centres unmarked) [Compound A57],5 (5=80-100%)
2,CC#Cc1cc(C)c(C2C(=O)CC3(CCN(C(C)=O)C(C)C3)CC2=O)c(C)c1 (centres unmarked) [Compound A58],5 (5=80-100%)
3,CC#Cc1cc(C)c(C2C(=O)CC3(CCN(C(C)=O)CC3C)CC2=O)c(C)c1 (centres unmarked) [Compound A59],5 (5=80-100%)
4,CC#Cc1cc(C)c(C2=C(OC(C)=O)CC3(CCCN(C(C)=O)CC3)CC2=O)c(C)c1 (centres unmarked) [Compound P1],5 (5=80-100%)
5,CC#Cc1cc(C)c(C2=C(OC(C)=O)CC3(CCN(C(C)=O)C(=O)C3)CC2=O)c(C)c1 (centres unmarked) [Compound P2],5 (5=80-100%)
6,CC#Cc1cc(C)c(C2=C(OC(=O)OC)CC3(CCN(C(C)=O)C3)CC2=O)c(C)c1 (centres unmarked) [Compound P3],5 (5=80-100%)

# System: Setaria faberi (SETFA)
# Experiment: as above
# Type: in vivo
# Details: post-emergence, 250 g/h, evaluated after 13 days
# Procedure, shortened: as §1
row,Compound,SETFA POST percentage damage caused to the plant (five-point scale)
1,CC#Cc1cc(C)c(C2C(=O)CC3(C=CN(C(=O)NC(=O)c4ccccn4)CC3)CC2=O)c(C)c1 (centres unmarked) [Compound A57],5 (5=80-100%)
2,CC#Cc1cc(C)c(C2C(=O)CC3(CCN(C(C)=O)C(C)C3)CC2=O)c(C)c1 (centres unmarked) [Compound A58],5 (5=80-100%)
3,CC#Cc1cc(C)c(C2C(=O)CC3(CCN(C(C)=O)CC3C)CC2=O)c(C)c1 (centres unmarked) [Compound A59],5 (5=80-100%)
4,CC#Cc1cc(C)c(C2=C(OC(C)=O)CC3(CCCN(C(C)=O)CC3)CC2=O)c(C)c1 (centres unmarked) [Compound P1],5 (5=80-100%)
5,CC#Cc1cc(C)c(C2=C(OC(C)=O)CC3(CCN(C(C)=O)C(=O)C3)CC2=O)c(C)c1 (centres unmarked) [Compound P2],5 (5=80-100%)
6,CC#Cc1cc(C)c(C2=C(OC(=O)OC)CC3(CCN(C(C)=O)C3)CC2=O)c(C)c1 (centres unmarked) [Compound P3],5 (5=80-100%)

# Same assay, conditions: pre-emergence, 250 g/h, evaluated after 13 days
row,Compound,SETFA PRE percentage damage caused to the plant (five-point scale)
1,CC#Cc1cc(C)c(C2C(=O)CC3(C=CN(C(=O)NC(=O)c4ccccn4)CC3)CC2=O)c(C)c1 (centres unmarked) [Compound A57],5 (5=80-100%)
2,CC#Cc1cc(C)c(C2C(=O)CC3(CCN(C(C)=O)C(C)C3)CC2=O)c(C)c1 (centres unmarked) [Compound A58],5 (5=80-100%)
3,CC#Cc1cc(C)c(C2C(=O)CC3(CCN(C(C)=O)CC3C)CC2=O)c(C)c1 (centres unmarked) [Compound A59],5 (5=80-100%)
4,CC#Cc1cc(C)c(C2=C(OC(C)=O)CC3(CCCN(C(C)=O)CC3)CC2=O)c(C)c1 (centres unmarked) [Compound P1],5 (5=80-100%)
5,CC#Cc1cc(C)c(C2=C(OC(C)=O)CC3(CCN(C(C)=O)C(=O)C3)CC2=O)c(C)c1 (centres unmarked) [Compound P2],5 (5=80-100%)
6,CC#Cc1cc(C)c(C2=C(OC(=O)OC)CC3(CCN(C(C)=O)C3)CC2=O)c(C)c1 (centres unmarked) [Compound P3],5 (5=80-100%)
